{"source": "patent US8530471B2", "about": "“Therapeutic cyclopentane derivatives” (Allergan, Inc., priority 2008, dated 2013)", "key": {"normotensive dogs": {"tested_on": "normotensive dogs", "assay": "Intraocular pressure (IOP) reduction in normotensive dogs", "type": "in vivo", "procedure": "Compounds such as those described in the above are tested in vivo to measure its ability to reduce intraocular pressure. Compound A is tested in normotensive dogs.\nCompound B is tested in normotensive dogs."}, "[1]": {"tested_on": "laser-induced hypertensive monkeys", "assay": "Intraocular pressure (IOP) reduction in laser-induced hypertensive monkeys", "type": "in vivo"}, "[2]": {"tested_on": "lashes and adjacent hairs of patients", "assay": "Observation of lashes in glaucoma patients treated in only one eye", "type": "in vivo, human", "conditions": "glaucoma patient, unilateral treatment", "excerpt": "In the course of treating patients having glaucoma, treatment may only be appropriate in one eye. […] The lash appearance on the lids of the treated eyes would have appeared quite attractive if it represented a bilateral phenomenon. As a result of its asymmetric nature, the long lashes on one side could be construed as disturbing from a cosmetic standpoint. A systemic examination was preformed as a result of the asymmetric phenomenon. It soon became apparent that this altered appearance was not an isolated finding. […] Definite differences could be identified to varying degrees in the lashes and adjacent hairs of all patients who were taking the drug on a unilateral basis for longer than 6 months.\nThe changes in the lashes were apparent on gross inspection in several patients once attention was focused on the issue. In those with light colored hair and lashes, the differences were only seen easily with the aid of the high magnification and lighting capabilities of the slit lamp biomicroscope. In the course of glaucoma follow-up examination, attention is generally immediately focused on the eye itself. As a result of the high power magnification needed only one eye is seen at a time and the eye is seen at a high enough power that the lashes are not in focus. […]"}}}
{"smiles": "CCCCCC(O)c1ccc([C@@H]2[C@@H](C/C=C\\CCCC(=O)OCCO)[C@H](C#N)C[C@H]2O)cc1", "note": "(some centres unmarked) [Compound A]", "values": [{"measurement": "intraocular pressure (IOP) change from baseline", "setting": "normotensive dogs", "result": "decreases from baseline"}, {"measurement": "intraocular pressure (IOP) change from baseline", "setting": "[1]", "result": "decreases from baseline"}]}
{"smiles": "CCCCCC(O)c1ccc([C@@H]2[C@@H](C/C=C\\CCCC(=O)OCCN3CCOCC3)[C@H](C#N)C[C@H]2O)cc1", "note": "(some centres unmarked) [Compound B]", "values": [{"measurement": "intraocular pressure (IOP) change from baseline", "setting": "normotensive dogs", "result": "decreases from baseline"}, {"measurement": "intraocular pressure (IOP) change from baseline", "setting": "[1]", "result": "decreases from baseline"}]}
{"smiles": "CCNC(=O)CCC/C=C\\C[C@@H]1[C@@H](/C=C/[C@@H](O)CCc2ccccc2)[C@H](O)C[C@@H]1O", "note": "[bimatoprost]", "values": [{"measurement": "lash appearance in treated eye versus non-treated eye", "setting": "[2]", "result": "longer, thicker, and fuller in the treated eye than in the non-treated eye"}]}
